For this experiment, the target named is human neprilysin (EC 3.4.24.11; NEP) (Homo sapiens (Human), UniProt P08473). The experiment in a line: In vitro enzyme inhibition assay at human NEP (fluorogenic peptide substrate). Format: biochemical. To be noted: pKi values at human NEP, recombinant human NEP. The procedure: In Vitro Assays for the Quantitation of Inhibitor Potencies at Human and Rat NEP, and Human ACE
Chain of human neprilysin (EC 3.4.24.11; NEP) (P08473 52-750): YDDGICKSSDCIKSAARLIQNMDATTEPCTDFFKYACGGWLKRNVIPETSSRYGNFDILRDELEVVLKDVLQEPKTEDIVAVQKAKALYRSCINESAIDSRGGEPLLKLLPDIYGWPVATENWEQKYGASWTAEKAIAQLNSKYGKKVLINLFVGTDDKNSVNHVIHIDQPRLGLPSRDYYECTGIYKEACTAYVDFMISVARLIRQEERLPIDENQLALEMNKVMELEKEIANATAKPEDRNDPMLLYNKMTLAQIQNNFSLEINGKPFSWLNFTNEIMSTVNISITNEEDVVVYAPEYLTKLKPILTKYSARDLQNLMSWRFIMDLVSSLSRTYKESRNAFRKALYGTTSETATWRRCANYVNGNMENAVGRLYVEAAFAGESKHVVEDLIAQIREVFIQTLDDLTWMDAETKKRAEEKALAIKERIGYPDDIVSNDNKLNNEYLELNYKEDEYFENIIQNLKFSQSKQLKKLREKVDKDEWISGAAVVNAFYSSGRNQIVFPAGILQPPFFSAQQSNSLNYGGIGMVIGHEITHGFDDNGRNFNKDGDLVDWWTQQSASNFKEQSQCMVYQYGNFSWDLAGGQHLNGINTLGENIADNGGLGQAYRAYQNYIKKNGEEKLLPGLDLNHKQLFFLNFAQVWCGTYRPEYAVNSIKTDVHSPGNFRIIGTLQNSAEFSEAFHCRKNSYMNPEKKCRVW
The inhibitory activities of compounds at human and rat neprilysin (EC 3.4.24.11; NEP) and human angiotensin converting enzyme (ACE) were determined using in vitro assays as described below.
Recombinant human NEP and recombinant human ACE were obtained commercially (R&D Systems, Minneapolis, Minn., catalog numbers 1182-ZN and 929-ZN, respectively). The fluorogenic peptide substrate Mca-D-Arg-Arg-Leu-Dap-(Dnp)-OH (Medeiros et al. (1997) Braz. J. Med. Biol. Res. 30:1157-62; Anaspec, San Jose, Calif.) and Abz-Phe-Arg-Lys(Dnp)-Pro-OH (Araujo et al. (2000) Biochemistry 39:8519-8525; Bachem, Torrance, Calif.) were used in the NEP and ACE assays respectively.
The assays were performed in 384-well white opaque plates at 37° C. using the fluorogenic peptide substrates at a concentration of 10 μM in Assay Buffer (NEP: 50 mM HEPES, pH 7.5, 100 mM NaCl, 0.01% polyethylene glycol sorbitan monolaurate (Tween-20), 10 μM ZnSO4; ACE: 50 mM HEPES, pH 7.5, 100 mM NaCl, 0.01% Tween-20, 1 μM ZnSO4).
Test compounds were assayed over the range of concentrations from 10 μM to pM. Test compounds were added to the enzymes and incubated for 30 minute at 37° C. prior to initiating the reaction by the addition of substrate. Reactions were terminated after 20 minutes of incubation at 37° C. by the addition of glacial acetic acid to a final concentration of 3.6% (v/v).
Plates were read on a fluorometer with excitation and emission wavelengths set to 320 nm and 405 nm, respectively. Inhibition constants were obtained by nonlinear regression of the data using the equation (GraphPad Software, Inc., San Diego, Calif.): v=v0/[1+(I/K′)] where v is the reaction rate, v0 is the uninhibited reaction rate, I is the inhibitor concentration and K′ is the apparent inhibition constant.
Compounds of the invention were tested in this assay and found to have pKi values at human NEP as follows.
With `O=C(N[C@H](Cc1ccc(-c2ccccc2)cc1)C[C@H](O)C(=O)O)c1cnc2[nH]nnc2c1` [Example 11-13, (2S,4R)-5-Biphenyl-4-yl-2-hydroxy-4-[(3H-[1,2,3]triazolo[4,5-b]pyridine-6-carbonyl)-amino]-pentanoic acid], the pKi is given as at least 9.0.

Consider `O=C(O)c1ccc(C(=O)N[C@H](Cc2ccc(-c3ccccc3)cc2)CC(O)C(=O)O)o1` (stereo partly drawn) [Example 12-1, 5-((R)-1-Biphenyl-4-ylmethyl-3-carboxy-3-hydroxypropylcarbamoyl)furan-2-carboxylic acid], for which the Ki was 1.26 to 10 nM.

As to `O=C(O)c1ccc(C(=O)N[C@H](Cc2ccc(-c3ccccc3)cc2)CC(O)C(=O)O)s1` (stereo partly drawn) [Example 12-2, 5-((R)-1-Biphenyl-4-ylmethyl-3-carboxy-3-hydroxypropylcarbamoyl)thiophene-2-carboxylic acid], the inhibition constant Ki is 1.26 to 10 nM.

As for `COc1cc(C(=O)N[C@H](Cc2ccc(-c3ccccc3)cc2)C[C@@H](O)C(=O)O)on1` [Example 12-3, (2R,4R)-5-Biphenyl-4-yl-2-hydroxy-4-[(3-methoxyisoxazole-5-carbonyl)amino]-pentanoic acid], the Ki was 1.26 to 10 nM.

Turning to `O=C(N[C@H](Cc1ccc(-c2ccccc2)cc1)C[C@@H](O)C(=O)O)c1cc(-c2ccc(Cl)cc2)no1` [Example 12-4, (2R,4R)-5-Biphenyl-4-yl-4-{[3-(4-chlorophenyl)-isoxazole-5-carbonyl]-amino}-2-hydroxy-pentanoic acid], the pKi was at least 9.0.

As to `COc1ccccc1C(=O)Nc1cc(C(=O)N[C@H](Cc2ccc(-c3ccccc3)cc2)C[C@@H](O)C(=O)O)on1` [Example 12-5, (2R,4R)-5-Biphenyl-4-yl-2-hydroxy-4-{[3-(2-methoxy-benzoylamino)-isoxazole-5-carbonyl]-amino}-pentanoic acid], the negative-log Ki (pKi) is listed as at least 9.0.

In the case of `O=C(N[C@H](Cc1ccc(-c2ccccc2)cc1)C[C@@H](O)C(=O)O)c1cc(-c2ccccc2Cl)no1` [Example 12-6, (2R,4R)-5-Biphenyl-4-yl-4-{[3-(2-chlorophenyl)-isoxazole-5-carbonyl]-amino}-2-hydroxy-pentanoic acid], the negative-log Ki (pKi) is listed as at least 9.0.

As for `O=C(N[C@H](Cc1ccc(-c2ccccc2)cc1)C[C@@H](O)C(=O)O)c1cc(C2CCCCC2)no1` [Example 12-7, (2R,4R)-5-Biphenyl-4-yl-4-[(3-cyclohexyl-isoxazole-5-carbonyl)-amino]-2-hydroxy-pentanoic acid], the pKi is listed as at least 9.0.

On to `O=C(N[C@H](Cc1ccc(-c2ccccc2)cc1)C[C@@H](O)C(=O)O)c1cc(-c2cccc(F)c2)no1` [Example 12-8, (2R,4R)-5-Biphenyl-4-yl-4-{[3-(3-fluorophenyl)-isoxazole-5-carbonyl]-amino}-2-hydroxy-pentanoic acid], for which the negative logarithm of the Ki (pKi) is listed as at least 9.0.

As for `O=C(N[C@H](Cc1ccc(-c2ccccc2)cc1)C[C@@H](O)C(=O)O)c1cc(-c2ccccc2F)no1` [Example 12-9, (2R,4R)-5-Biphenyl-4-yl-4-{[3-(2-fluorophenyl)-isoxazole-5-carbonyl]-amino}-2-hydroxy-pentanoic acid], the pKi is on record as at least 9.0.

For `Cn1cc(-c2cc(C(=O)N[C@H](Cc3ccc(-c4ccccc4)cc3)C[C@@H](O)C(=O)O)on2)cn1` [Example 12-10, (2R,4R)-5-Biphenyl-4-yl-2-hydroxy-4-{[3-(1-methyl-1H-pyrazol-4-yl)-isoxazole-5-carbonyl]-amino}-pentanoic acid], the Ki is 1.26 to 10 nM.

As for `O=C(N[C@H](Cc1ccc(-c2ccccc2)cc1)C[C@@H](O)C(=O)O)c1cc(-c2cc(Cl)ccc2Cl)no1` [Example 12-11, (2R,4R)-5-Biphenyl-4-yl-4-{[3-(2,5-dichlorophenyl)-isoxazole-5-carbonyl]-amino}-2-hydroxy-pentanoic acid], the pKi is at least 9.0.

Take `O=C(N[C@H](Cc1ccc(-c2ccccc2)cc1)C[C@@H](O)C(=O)O)c1cc(-c2ccc(Cl)c(Cl)c2)no1` [Example 12-12, (2R,4R)-5-Biphenyl-4-yl-4-{[3-(3,4-dichlorophenyl)-isoxazole-5-carbonyl]-amino}-2-hydroxy-pentanoic acid]: the inhibition constant Ki is 1.26 to 10 nM.

On to `COc1ccccc1-c1cc(C(=O)N[C@H](Cc2ccc(-c3ccccc3)cc2)C[C@@H](O)C(=O)O)on1` [Example 12-13, (2R,4R)-5-Biphenyl-4-yl-2-hydroxy-4-{[3-(2-methoxy-phenyl)-isoxazole-5-carbonyl]-amino}-pentanoic acid], for which the negative logarithm of the Ki (pKi) is given as at least 9.0.

Take `O=C(O)c1cc(C(=O)N[C@H](Cc2ccc(-c3ccccc3)cc2)C[C@@H](O)C(=O)O)on1` [Example 12-14, 5-((1R,3R)-1-Biphenyl-4-ylmethyl-3-carboxy-3-hydroxy-propylcarbamoyl)-isoxazole-3-carboxylic acid]: the inhibitory constant (Ki) was 12.6 to 100 nM.

With `COc1ccccc1-c1cc(C(=O)N[C@H](Cc2ccc(-c3ccccc3)cc2)C[C@@H](O)C(=O)O)no1` [Example 12-15, (2R,4R)-5-Biphenyl-4-yl-2-hydroxy-4-{[5-(2-methoxy-phenyl)-isoxazole-3-carbonyl]-amino}-pentanoic acid], the Ki was 1.26 to 10 nM.

On to `O=C(N[C@H](Cc1ccc(-c2ccccc2)cc1)C[C@@H](O)C(=O)O)c1cc(-c2ccccc2Cl)on1` [Example 12-16, (2R,4R)-5-Biphenyl-4-yl-4-{[5-(2-chlorophenyl)-isoxazole-3-carbonyl]-amino}-2-hydroxy-pentanoic acid], for which the negative-log Ki (pKi) was at least 9.0.

`O=C(N[C@H](Cc1ccc(-c2ccccc2)cc1)C[C@@H](O)C(=O)O)c1cc(-c2ccc(Cl)cc2)on1` [Example 12-17, (2R,4R)-5-Biphenyl-4-yl-4-{[5-(4-chlorophenyl)-isoxazole-3-carbonyl]-amino}-2-hydroxy-pentanoic acid]: the Ki is 1.26 to 10 nM.

Turning to `COc1cccc(-c2cc(C(=O)N[C@H](Cc3ccc(-c4ccccc4)cc3)C[C@@H](O)C(=O)O)no2)c1` [Example 12-18, (2R,4R)-5-Biphenyl-4-yl-2-hydroxy-4-{[5-(3-methoxy-phenyl)-isoxazole-3-carbonyl]-amino}-pentanoic acid], the Ki was 1.26 to 10 nM.

With `O=C(N[C@H](Cc1ccc(-c2ccccc2)cc1)C[C@@H](O)C(=O)O)c1cc(CN2CCOCC2)on1` [Example 12-19, (2R,4R)-5-Biphenyl-4-yl-2-hydroxy-4-[(5-morpholin-4-ylmethyl-isoxazole-3-carbonyl)-amino]-pentanoic acid], the Ki is 12.6 to 100 nM.

`COc1ccc(-c2cc(C(=O)N[C@H](Cc3ccc(-c4ccccc4)cc3)C[C@@H](O)C(=O)O)no2)cc1` [Example 12-20, (2R,4R)-5-Biphenyl-4-yl-2-hydroxy-4-{[5-(4-methoxy-phenyl)-isoxazole-3-carbonyl]-amino}-pentanoic acid]: the Ki was 1.26 to 10 nM.

As to `O=C(N[C@H](Cc1ccc(-c2ccccc2)cc1)C[C@@H](O)C(=O)O)c1cc(-c2ccccc2O)on1` [Example 12-21, (2R,4R)-5-Biphenyl-4-yl-2-hydroxy-4-{[5-(2-hydroxy-phenyl)-isoxazole-3-carbonyl]-amino}-pentanoic acid], the pKi is at least 9.0.

For `O=C(N[C@H](Cc1ccc(-c2ccccc2)cc1)C[C@@H](O)C(=O)O)c1cc(NC(=O)c2ccccc2Cl)on1` [Example 12-22, (2R,4R)-5-Biphenyl-4-yl-4-{[5-(2-chlorobenzoylamino)-isoxazole-3-carbonyl]-amino}-2-hydroxy-pentanoic acid], the pKi was at least 9.0.

Turning to `O=C(N[C@H](Cc1ccc(-c2ccccc2)cc1)C[C@@H](O)C(=O)O)c1cnc(-c2ccccc2)o1` [Example 12-23, (2R,4R)-5-Biphenyl-4-yl-2-hydroxy-4-[(2-phenyl-oxazole-5-carbonyl)-amino]-pentanoic acid], the inhibitory constant (Ki) was 1.26 to 10 nM.

Turning to `CC(=O)Nc1ncc(C(=O)N[C@H](Cc2ccc(-c3ccccc3)cc2)C[C@@H](O)C(=O)O)s1` [Example 12-24, (2R,4R)-4-[(2-Acetylamino-thiazole-5-carbonyl)-amino]-5-biphenyl-4-yl-2-hydroxy-pentanoic acid], the Ki was 12.6 to 100 nM.

`COc1ccccc1C(=O)Nc1nc(C(=O)N[C@H](Cc2ccc(-c3ccccc3)cc2)C[C@@H](O)C(=O)O)cs1` [Example 12-25, (2R,4R)-5-Biphenyl-4-yl-2-hydroxy-4-{[2-(2-methoxy-benzoylamino)-thiazole-4-carbonyl]-amino}-pentanoic acid]: the inhibitory constant (Ki) is 12.6 to 100 nM.

On to `O=C(N[C@H](Cc1ccc(-c2ccccc2)cc1)C[C@@H](O)C(=O)O)c1nc(-c2ccccc2Cl)no1` [Example 12-26, (2R,4R)-5-Biphenyl-4-yl-4-{[3-(2-chlorophenyl)-[1,2,4]oxadiazole-5-carbonyl]-amino}-2-hydroxy-pentanoic acid], for which the Ki is 1.26 to 10 nM.

Source of the values: patent US10759813B2, “Neprilysin inhibitors” (THERAVANCE BIOPHARMA R&D IP, LLC, priority 2010, dated 2020).
